One series relates to tat protein. As to the kind of experiment: competition filter binding assay with chemically synthesized RNA (Table 4). The following applies: for IC50: 40 nM tat, read-out: D1/2; for competition for tat binding compared with unmodified RNA: competition filter binding, FIGS. 19, 21-24, 26. More on the design: species or system HIV-1. As to the method:
Competition binding reactions (0.5ml) in TK buffer (50 mM Tris.HCl(pH7.9 at 0.5M and 22° G), 20 mM KCl ) included 10nM ^32 p labeled 59-mer (ca. 20,000 cpm) , 40nM tat protein, 5 ug/ml calf thymus DNA, 2 ug/ml yeast tRNA, 40 units of RNAsin (Promega) and varying concentrations (0-300 nM) of unlabeled competitor RNA (59-mer [SEQ ID NO: 1; ], 29-mer [SEQ ID NO: 12] or preannealed (slow cooled from 90° C.) 14-mer [SEQ ID NO: 14; nucleotides 2-15] and 17-mer [SEQ ID NO: 13; nucleotides 1- 17]). Binding was allowed to take place for 2-15 minutes on ice and each reaction was filtered through a twice prewashed (0.6 ml of ice-cold TK buffer) Millipore GS filter (2.5 cm disks, 0.22 um pore) and the filter washed with TK buffer (0.6 ml). Dried filters were counted by liquid scintillation. Results were plotted on a graph (FIG. 19) showing counts retained on the filter versus the concentration of competitor RNA added.
Competition binding reactions (0.5 ml) in TK buffer included 10 nM duplex formed from ^32 P-labeled and unlabeled 29-mer (ca. 20,000 cpm) or 10 nM duplex formed from ^32 P-labeled and unlabeled 17-mer annealed to unlabeled 14-mer, 40 nM tat protein, 5 ug/ml calf thymus DNA, 2 ug/ml yeast tRNA and varying concentrations (0-120 nM) of unlabeled competitor RNA (29-mer or modified 29-mer (FIG. 21), or 17-mer +14-mer duplex or modified 7-mer +14-mer duplex (22, 23 and 24) and were carried out as described above.
Competition binding reactions (0-5 ml) in TK buffer included 10 nM duplex formed from ^32 P-labelled (ca. 20,000 cpm) and unlabelled 18-mer [SEQ ID NO: 13] annealed to unlabelled 15-mer [SEQ ID NO: 14], 40 nM tat protein, 5 ug/ml calf thymus DNA, 2 ug/ml yeast TRNA and varying concentrations (0-120 nM) of unlabelled competitor RNA (59-mer [SEQ ID NO: 1] or 18-mer [SEQ ID NO: 13]+15-mer [SEQ ID NO: 14] duplex, or modified 18-mer [SEQ ID NO: […]

The target in another series is HIV-1 Tat (Human immunodeficiency virus 1, UniProt P04608 P04608:1-86). Nature of the series: competition; D1/2; wild type 90 nM.
The mark [1] stands for this setting: 32P-end-labelled 29-mer 10 nM, competitor 0-120 nM.
Setting [2] is: relative to 29-mer, 32P-end-labelled 29-mer 10 nM.
[3] abbreviates: 32P-labeled 59-mer transcript 10 nM.
Setting [4] is: 32P-end labelled 18-mer annealed to 15-mer.
The mark [5] stands for this setting: 32P-end labelled 18-mer annealed to 15-mer 10 nM, competitor 0-120 nM.
[6] abbreviates: relative to 14 +17 duplex, 32P-end labelled 18-mer annealed to 15-mer.

Entries after “also recorded” stand apart in the source; their conditions may differ. Like-named read-outs stand apart in the source and are kept apart here. [4sT] = 4-thio-2'-deoxythymidine; d = 2'-deoxy (DNA); r = 2'-OH (RNA)

Turning to “dU-23: chemically synthesized 29-mer where U23 is replaced by 2'-deoxyuridine (GCCAGANUUGAGCCUGGGAGCUCUCUGGC; 2'-deoxyuridine at 23, chemistry not fully specified)”, the IC50 with tat protein (setting [1]) was determined as 55 nM. Also, the “competition for tat binding compared with unmodified RNA” value in the series with tat protein (listed as SEQ ID NO: 15) was “competed as well as as unmodified 29-mer; also recorded: competes for tat binding as well as unmodified 29-mer”. Besides, in the series with tat protein (setting [2]), the “Krel (29 or 14 +17)” value is on record as 1.1. Consider “r(GCCAGAUUUGAGCCUGGGAGCUCUCUGGC) (RNA, backbone not given here) [29-mer, chemically synthesized 29-mer, top part of TAR including loop and U-rich bulge]”, for which the IC50 came to 60 nM in the series with tat protein (setting [1]) and 100 nM with tat protein (32P-labeled 59-mer transcript 10 nM, competitor 0-300 nM). Also, the “Krel (59-mer)” value in the series with tat protein (setting [3]) came to 0.4. Further, in the series on tat protein (setting [3]), the “increase in D1/2 compared with 59-mer” value was 2-3 fold. Besides, the “competition for tat binding compared with unmodified RNA” value with tat protein is “competes for binding to tat almost as well as a 59-mer RNA transcript”. In addition, the “Krel (29 or 14 +17)” value in the series with tat protein (setting [2]) stood at 1.0. “4-thioT-24: 15-mer annealed to 18-mer where U24 is replaced by 4-thio-2'-deoxythymidine (AGCCAGAUTUGAGCAGCU; sugars from the 5' end r8 d1 r9, [4sT] at 9, backbone not given here; annealed to 15-mer strand)”: in the series on tat protein (setting [4]), the “Krel (59-mer)” value was determined as 0.7. The IC50 in the series on tat protein (setting [5]) stood at 25 nM. In addition, the “competition for tat binding compared with unmodified RNA” value in the series on tat protein is listed as “competes for binding better than unsubstituted duplex”. Further, the “Krel (29 or 14 +17)” value in the series on tat protein (setting [6]) is 2.0. In the case of “4-thioT-25: 15-mer annealed to 18-mer where U25 is replaced by 4-thio-2'-deoxythymidine (AGCCAGAUUTGAGCAGCU; DNA at 10, [4sT] at 10, other sugars and backbone not given here; annealed to a 15-mer strand, further chemistry not fully specified)”, the “Krel (59-mer)” value in the series with tat protein (setting [4]) is recorded as 1.5. Further, the IC50 in the series with tat protein (setting [5]) is 12 nM. Besides, the “competition for tat binding compared with unmodified RNA” value in the series with tat protein (listed as SEQ ID NO: 25) is given as “competes for binding better than unsubstituted duplex; also recorded: competes as well as unmodified 59-mer”. In the series on tat protein (setting [6]), the “Krel (29 or 14 +17)” value is listed as 4.2.

As to “2'-OmeU-23: chemically synthesized 29-mer where U23 is replaced by 2'-O-methyluridine (GCCAGANUUGAGCCUGGGAGCUCUCUGGC; 2'-O-methyluridine at U23, chemistry not fully specified)”, the IC50 in the series with tat protein (setting [1]) was 50 nM. Moreover, in the series with tat protein (listed as SEQ ID NO: 16), the “competition for tat binding compared with unmodified RNA” value is listed as “competed as well as as unmodified 29-mer; also recorded: competes for tat binding as well as unmodified 29-mer”. For the same molecule, in the series with tat protein (setting [2]), the “Krel (29 or 14 +17)” value is 1.2.

B1: TAR bulge U (ssRNA)
RNA: GGGUCUCUCUGGUUAGACCAGAUGAGCCUGGGAGCUCUCUGGCUAACUAGGGAACCC
modifications: [23-25]
In the series with HIV-1 Tat, B1 came in with an IC50 of 673 nM.

B2: TAR bulge CUU (ssRNA)
RNA: GGGUCUCUCUGGUUAGACCAGACUUGAGCCUGGGAGCUCUCUGGCUAACUAGGGAACCC
modifications: [23]
Molecule B2 gave an IC50 with HIV-1 Tat of 630 nM.

B3: TAR G26 to A26; C39 to U39 (ssRNA)
RNA: GGGUCUCUCUGGUUAGACCAGAUUUAAGCCUGGGAGCUUUCUGGCUAACUAGGGAACCC
On to B3, for which the IC50 with HIV-1 Tat worked out at 631 nM.

B4: TAR A22 to U22; U40 to A40 (ssRNA)
RNA: GGGUCUCUCUGGUUAGACCAGUUUUGAGCCUGGGAGCUCACUGGCUAACUAGGGAACCC
On to B4, for which the IC50 with HIV-1 Tat amounted to 220 nM.

B5: TAR bulge CUC (ssRNA)
RNA: GGGUCUCUCUGGUUAGACCAGACUCGAGCCUGGGAGCUCUCUGGCUAACUAGGGAACCC
modifications: [23,25]
Regarding B5, the IC50 with HIV-1 Tat came out at 2140 nM.

B6: TAR U40 to A40 (ssRNA)
RNA: GGGUCUCUCUGGUUAGACCAGAUUUGAGCCUGGGAGCUCACUGGCUAACUAGGGAACCC
B6 gave an IC50 in the series with HIV-1 Tat of 5620 nM.

B7: TAR bulge CCC (ssRNA)
RNA: GGGUCUCUCUGGUUAGACCAGACCCGAGCCUGGGAGCUCUCUGGCUAACUAGGGAACCC
modifications: [23,24,25]
In the case of B7, the IC50 with HIV-1 Tat came out at 1780 nM.

B8: TAR C39 to G39 (ssRNA)
RNA: GGGUCUCUCUGGUUAGACCAGAUUUGAGCCUGGGAGCUGUCUGGCUAACUAGGGAACCC
Regarding B8, in the series with HIV-1 Tat, the IC50 amounted to 1500 nM.

B9: TAR G26 to C26; C39 to G39 (ssRNA)
RNA: GGGUCUCUCUGGUUAGACCAGAUUUCAGCCUGGGAGCUGUCUGGCUAACUAGGGAACCC
Consider B9, for which, in the series with HIV-1 Tat, the IC50 worked out at 2370 nM.

B10: TAR bulge CCU (ssRNA)
RNA: GGGUCUCUCUGGUUAGACCAGACCUGAGCCUGGGAGCUCUCUGGCUAACUAGGGAACCC
modifications: [23,24]
In the series with HIV-1 Tat, B10 returned an IC50 of 1330 nM.

B11: TAR bulge CC (ssRNA)
RNA: GGGUCUCUCUGGUUAGACCAGACCGAGCCUGGGAGCUCUCUGGCUAACUAGGGAACCC
On to B11, for which the IC50 with HIV-1 Tat was found to be 2370 nM.
